Data set [1] in a line: Clearance in rat hepatocytes at 1 uM by LC-MS/MS analysis. The format is ADME, cell-based, Hepatocyte.
The nature of data set [2]: Clearance in human hepatocytes at 1 uM by LC-MS/MS analysis. The format is ADME, cell-based, Hepatocyte.
Data set [3] has as its target T1, Leucine-rich repeat serine/threonine-protein kinase 2 (Homo sapiens, UniProt Q5S007). In words: Inhibition of LRRK2 (unknown origin) phosphorylation by cell-based assay.
In data set [4] the target is MDR1 (P-gp, ABCB1) (Homo sapiens, UniProt P08183). Description: Activity at human MDR1 transfected in MDCK cells assessed as efflux ratio of apparent permeability from basolateral to apical side over apical to basolateral side at 5 uM. In kind it is ADME, cell-based.
Chain of MDR1 (P-gp, ABCB1) (P08183 whole entry): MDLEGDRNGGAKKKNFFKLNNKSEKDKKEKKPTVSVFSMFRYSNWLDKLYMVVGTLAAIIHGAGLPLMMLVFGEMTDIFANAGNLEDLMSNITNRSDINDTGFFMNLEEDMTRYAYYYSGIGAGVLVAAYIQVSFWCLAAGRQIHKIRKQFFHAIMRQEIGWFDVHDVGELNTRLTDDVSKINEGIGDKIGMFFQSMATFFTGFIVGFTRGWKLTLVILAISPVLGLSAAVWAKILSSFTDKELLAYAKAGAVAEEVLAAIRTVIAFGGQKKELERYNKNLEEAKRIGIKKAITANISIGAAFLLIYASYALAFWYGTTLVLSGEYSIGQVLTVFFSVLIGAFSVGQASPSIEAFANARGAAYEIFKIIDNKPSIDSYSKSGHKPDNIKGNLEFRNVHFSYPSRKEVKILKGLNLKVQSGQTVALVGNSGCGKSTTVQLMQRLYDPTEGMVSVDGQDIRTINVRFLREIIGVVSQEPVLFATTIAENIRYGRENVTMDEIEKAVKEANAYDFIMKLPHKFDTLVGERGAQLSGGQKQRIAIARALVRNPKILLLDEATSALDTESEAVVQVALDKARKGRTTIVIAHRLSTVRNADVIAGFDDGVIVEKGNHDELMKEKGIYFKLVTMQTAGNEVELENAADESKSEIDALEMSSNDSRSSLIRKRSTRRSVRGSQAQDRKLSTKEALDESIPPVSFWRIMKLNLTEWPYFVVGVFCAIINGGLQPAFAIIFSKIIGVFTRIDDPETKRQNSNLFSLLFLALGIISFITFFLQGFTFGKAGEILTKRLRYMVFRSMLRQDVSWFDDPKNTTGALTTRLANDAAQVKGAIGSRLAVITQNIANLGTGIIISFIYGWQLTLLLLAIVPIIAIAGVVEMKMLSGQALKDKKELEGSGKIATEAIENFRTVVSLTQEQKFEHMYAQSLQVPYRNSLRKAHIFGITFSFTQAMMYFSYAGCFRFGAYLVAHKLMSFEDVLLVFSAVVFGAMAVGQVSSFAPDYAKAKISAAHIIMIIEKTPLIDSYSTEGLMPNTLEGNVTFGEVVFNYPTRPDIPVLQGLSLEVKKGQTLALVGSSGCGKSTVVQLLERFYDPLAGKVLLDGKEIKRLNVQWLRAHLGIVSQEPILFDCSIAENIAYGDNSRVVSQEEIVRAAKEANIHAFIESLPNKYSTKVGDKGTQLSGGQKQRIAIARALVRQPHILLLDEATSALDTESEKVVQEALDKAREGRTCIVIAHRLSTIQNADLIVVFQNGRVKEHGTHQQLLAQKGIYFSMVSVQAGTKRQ
The species entered for data set [5] is Homo sapiens. In words: Selectivity ratio of Ki for JAK2 (unknown origin) to Ki for LRRK2 (unknown origin).
Data set [6] has as its system Rattus norvegicus. In words: Unbound clearance in Sprague-Dawley rat at 1 mg/kg, po and 0.5 mg/kg, iv. In kind it is ADME, organism-based. The note with it: in vivo.
Data set [7] concerns the target T1, Leucine-rich repeat serine/threonine-protein kinase 2. Description: Inhibition of LRRK2 (unknown origin).
Data set [8] can be described thus: Clearance in Sprague-Dawley rat at 1 mg/kg, po and 0.5 mg/kg, iv. In kind it is ADME, organism-based. To be noted: in vivo.
The nature of data set [9]: Ratio of unbound drug level in brain to plasma in Sprague-Dawley rat. The format is ADME, organism-based.
Data set [10] can be described thus: Half life in Sprague-Dawley rat at 1 mg/kg, po and 0.5 mg/kg, iv. The note with it: in vivo. The format is ADME, organism-based.
A short description of data set [11]: Reversible inhibition of CYP in human liver microsomes by mass spectrophotometric analysis. In kind it is ADME. In general terms: Liver microsomes are a subcellular fraction often used to study metabolism.
Data set [12] in a line: Time dependent inhibition of CYP in human liver microsomes by HPLC-MS analysis. In kind it is ADME.
A short description of data set [13]: Volume of distribution in Sprague-Dawley rat at 1 mg/kg, po and 0.5 mg/kg, iv. The format is ADME, organism-based. To be noted: in vivo.
Data set [14] can be described thus: Thermodynamic solubility of the crystalline form of compound at pH 7.4. The format is physicochemical. To be noted: read-out: Therm_solubility.
The nature of data set [15]: Volume of distribution in Sprague-Dawley rat at 0.5 mg/kg, iv. In kind it is ADME, organism-based. Also noted: dose 0.5 mg/kg, route intravenous. The note with it: in vivo.
Data set [16] can be described thus: Half life in Sprague-Dawley rat at 0.5 mg/kg, iv. In kind it is ADME, organism-based. Also noted: dose 0.5 mg/kg, route intravenous. To be noted: in vivo.
Data set [17] has as its target T2, BCRP (ABCG2) (Homo sapiens, UniProt Q9UNQ0).
T2 sequence (Q9UNQ0 whole entry): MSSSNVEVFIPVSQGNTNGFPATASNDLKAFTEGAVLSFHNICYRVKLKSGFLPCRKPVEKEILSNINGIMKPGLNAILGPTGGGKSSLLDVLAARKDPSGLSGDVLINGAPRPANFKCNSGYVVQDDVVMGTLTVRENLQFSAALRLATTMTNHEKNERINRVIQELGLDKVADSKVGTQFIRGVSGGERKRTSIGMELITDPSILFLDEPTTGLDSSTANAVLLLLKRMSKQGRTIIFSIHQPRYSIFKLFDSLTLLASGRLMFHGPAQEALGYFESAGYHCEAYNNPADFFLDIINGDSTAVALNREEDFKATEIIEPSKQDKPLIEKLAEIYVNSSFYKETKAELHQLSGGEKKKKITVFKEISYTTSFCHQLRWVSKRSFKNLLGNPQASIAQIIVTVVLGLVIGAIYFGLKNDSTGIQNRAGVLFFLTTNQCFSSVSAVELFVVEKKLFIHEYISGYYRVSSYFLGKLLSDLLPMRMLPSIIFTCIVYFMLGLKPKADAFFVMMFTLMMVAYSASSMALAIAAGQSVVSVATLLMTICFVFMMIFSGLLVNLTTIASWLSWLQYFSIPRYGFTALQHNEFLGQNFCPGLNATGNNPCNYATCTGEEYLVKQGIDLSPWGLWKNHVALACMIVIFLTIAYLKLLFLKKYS
Description: Activity at BCRP transporter (unknown origin) transfected in MDCK cells assessed as efflux ratio of permeability. The format is ADME, cell-based.

A word on the IC50: it is the point on the concentration scale where inhibition reaches its midpoint. Read a low IC50 as inhibition by little substance. For orientation: efflux ratio means a quotient of directional permeabilities that is used to spot active efflux. What is called Ki is the dissociation constant of the complex between target and ligand, obtained from inhibition or displacement. For orientation: half-life means the time needed for the level to fall by half in the phase considered. Lower therefore signals rapid decline.

SMILES strings stand for the structures. Where only a bound is given, the exact number is not on record here.

T1 sequence (Q5S007 whole entry): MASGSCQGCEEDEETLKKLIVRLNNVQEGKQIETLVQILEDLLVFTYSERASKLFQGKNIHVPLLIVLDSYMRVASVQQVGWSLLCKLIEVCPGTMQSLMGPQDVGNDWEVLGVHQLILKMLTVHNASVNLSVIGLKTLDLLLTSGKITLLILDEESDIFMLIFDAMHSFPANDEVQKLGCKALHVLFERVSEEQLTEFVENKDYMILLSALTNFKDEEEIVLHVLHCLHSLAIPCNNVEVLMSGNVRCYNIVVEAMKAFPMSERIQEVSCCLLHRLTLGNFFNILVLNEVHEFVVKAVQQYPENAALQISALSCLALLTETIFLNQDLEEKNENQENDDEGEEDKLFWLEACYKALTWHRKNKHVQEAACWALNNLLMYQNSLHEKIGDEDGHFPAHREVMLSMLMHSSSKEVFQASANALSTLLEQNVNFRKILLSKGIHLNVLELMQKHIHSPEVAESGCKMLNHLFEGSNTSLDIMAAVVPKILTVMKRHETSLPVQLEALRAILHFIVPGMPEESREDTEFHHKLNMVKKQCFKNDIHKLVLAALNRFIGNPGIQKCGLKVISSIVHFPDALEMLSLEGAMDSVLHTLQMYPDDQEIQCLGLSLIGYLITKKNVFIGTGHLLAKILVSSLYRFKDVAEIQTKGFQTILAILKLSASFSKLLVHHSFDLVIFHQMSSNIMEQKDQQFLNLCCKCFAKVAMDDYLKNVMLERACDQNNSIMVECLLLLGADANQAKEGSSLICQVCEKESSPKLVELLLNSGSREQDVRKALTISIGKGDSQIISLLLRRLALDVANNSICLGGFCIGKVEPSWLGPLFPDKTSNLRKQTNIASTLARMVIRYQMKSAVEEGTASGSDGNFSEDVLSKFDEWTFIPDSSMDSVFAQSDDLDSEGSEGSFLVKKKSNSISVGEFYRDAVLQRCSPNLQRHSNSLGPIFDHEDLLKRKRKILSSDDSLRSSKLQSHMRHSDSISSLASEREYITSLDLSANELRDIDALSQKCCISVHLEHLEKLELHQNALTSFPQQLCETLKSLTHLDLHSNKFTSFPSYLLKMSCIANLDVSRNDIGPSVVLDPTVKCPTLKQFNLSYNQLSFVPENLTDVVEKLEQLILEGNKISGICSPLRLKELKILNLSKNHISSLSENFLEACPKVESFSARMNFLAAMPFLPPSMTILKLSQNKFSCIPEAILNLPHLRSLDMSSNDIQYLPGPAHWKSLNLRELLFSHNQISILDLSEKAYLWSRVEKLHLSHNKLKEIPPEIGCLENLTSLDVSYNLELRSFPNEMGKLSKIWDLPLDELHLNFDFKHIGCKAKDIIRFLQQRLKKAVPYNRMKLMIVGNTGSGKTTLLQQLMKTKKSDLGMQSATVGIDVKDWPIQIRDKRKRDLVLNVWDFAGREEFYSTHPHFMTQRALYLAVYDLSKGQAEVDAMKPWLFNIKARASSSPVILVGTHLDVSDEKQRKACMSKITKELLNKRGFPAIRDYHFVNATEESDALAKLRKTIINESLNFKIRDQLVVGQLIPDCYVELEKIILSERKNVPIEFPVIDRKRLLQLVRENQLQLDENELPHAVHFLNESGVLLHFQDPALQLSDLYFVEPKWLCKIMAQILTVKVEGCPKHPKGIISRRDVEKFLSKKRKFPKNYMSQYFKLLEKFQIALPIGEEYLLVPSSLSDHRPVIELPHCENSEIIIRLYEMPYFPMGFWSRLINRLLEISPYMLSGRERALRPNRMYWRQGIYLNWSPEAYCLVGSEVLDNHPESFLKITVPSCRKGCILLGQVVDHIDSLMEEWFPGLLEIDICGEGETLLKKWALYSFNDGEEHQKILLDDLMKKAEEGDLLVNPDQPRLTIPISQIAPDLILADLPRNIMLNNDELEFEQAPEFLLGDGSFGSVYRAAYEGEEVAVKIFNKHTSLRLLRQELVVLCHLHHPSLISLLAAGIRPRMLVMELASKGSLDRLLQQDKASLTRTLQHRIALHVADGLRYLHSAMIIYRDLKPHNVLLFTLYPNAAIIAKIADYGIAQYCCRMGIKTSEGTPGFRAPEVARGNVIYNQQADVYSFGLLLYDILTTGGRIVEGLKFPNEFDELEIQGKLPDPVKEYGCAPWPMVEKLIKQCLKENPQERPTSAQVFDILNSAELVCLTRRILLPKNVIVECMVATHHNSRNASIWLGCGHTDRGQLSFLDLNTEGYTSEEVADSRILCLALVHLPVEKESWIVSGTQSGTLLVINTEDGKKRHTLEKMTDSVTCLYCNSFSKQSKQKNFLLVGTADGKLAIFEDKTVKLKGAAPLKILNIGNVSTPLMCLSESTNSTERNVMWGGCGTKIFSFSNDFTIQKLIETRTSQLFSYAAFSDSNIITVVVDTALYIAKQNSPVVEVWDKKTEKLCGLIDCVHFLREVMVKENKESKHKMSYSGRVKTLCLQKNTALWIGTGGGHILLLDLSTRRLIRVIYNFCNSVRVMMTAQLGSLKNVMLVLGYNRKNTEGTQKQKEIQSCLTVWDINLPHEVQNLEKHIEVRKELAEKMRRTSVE

`CNc1nc(Nc2cnn3c2C(C)OCC3)ncc1C(F)(F)F` (stereo not given): the CLhep predicted at 1 µM was 19 mL/min/kg in [1] and 3 mL/min/kg in [2]. In data set [3], this molecule yielded a half-inhibitory concentration (IC50) of 42 nM. Also, the efflux ratio at 5 µM in data set [4] was found to be 1.3. Moreover, in data set [5], the Ratio Ki is greater than 150. The CL free in [6] is 105 mL/min/kg. For the same molecule, the Ki in data set [7] stood at 3 nM. This molecule also yielded a clearance in data set [8] of 43 mL/min/kg.

Consider `CNc1nc(Nc2cnn(C(C)(C)C#N)c2C)ncc1C(F)(F)F`, for which the CLhep predicted at 1 µM in data set [1] is 33 mL/min/kg; in data set [2], 4 mL/min/kg. In [3], this molecule showed an IC50 of 5 nM. In data set [4], the efflux ratio at 5 µM was 1. The Ratio Ki in [5] was greater than 150. This molecule yielded a CL free in [6] of 423 mL/min/kg. Also, the affinity in data set [7] corresponds to a Ki of 1 nM. In data set [8], this molecule returned a clearance of 65 mL/min/kg. The Kp uu in data set [9] was determined as 0.4.

On to `CNc1nc(Nc2cn(C3(C#N)CC3)nc2C)ncc1C(F)(F)F`, for which the CLhep predicted at 1 µM in data set [1] was 14 mL/min/kg; in data set [2], 5 mL/min/kg. In data set [3], half-maximal inhibition (IC50) required 30 nM. Further, the efflux ratio at 5 µM in data set [4] was 1.4. In [5], the Ratio Ki was greater than 150. Also, the CL free in [6] was found to be 213 mL/min/kg. Also, the inhibition constant (Ki) in data set [7] came to 3 nM. Besides, the clearance in [8] turned out to be 55 mL/min/kg. Also, in data set [9], the Kp uu turned out to be 0.4.

Turning to `CNc1nc(Nc2cnn(C3CCN(C4COC4)CC3)c2C)ncc1C(F)(F)F`, the CLhep predicted at 1 µM in data set [1] was 9 mL/min/kg; in [2] it was 3 mL/min/kg. Moreover, the IC50 in data set [3] amounted to 20 nM. For the same molecule, in data set [4], the efflux ratio at 5 µM came out at 5.1. Also, in data set [5], the Ratio Ki was greater than 150. The CL free in data set [6] was 45 mL/min/kg. Further, the affinity in data set [7] corresponds to a Ki of 4 nM. The molecule also came in with a clearance in data set [8] of 22 mL/min/kg. The molecule further had a half-life in [10] of 2.1 h. The Kp uu in data set [9] was determined as 0.06. The “inhibition (INH)” value in data set [11] and in data set [12] was “Not Active” in each case. This molecule also registered a Vd in data set [13] of 1.7 L/kg.

On to `CNc1nc(Nc2cnn3c2C(C)O[C@@H](C)C3)ncc1C(F)(F)F` (stereo not given in full), for which the CLhep predicted at 1 µM in data set [2] is 8 mL/min/kg. The molecule also displayed an IC50 in data set [3] of 49 nM. Moreover, the efflux ratio at 5 µM in data set [4] was determined as 1. Moreover, the Ratio Ki in [5] is greater than 150. The molecule further showed a Ki in data set [7] of 6 nM.

On to `CCNc1nc(Nc2cc(F)c(C(=O)N3CCOCC3)cc2OC)ncc1C(F)(F)F`, for which, in data set [5], the Ratio Ki is greater than 150. Also, the solubility thermodynamic in data set [14] is less than 2 µg/mL.

Consider `CNc1nc(Nc2cnn(C3CCOCC3)c2C)ncc1C(F)(F)F`, for which the CLhep predicted at 1 µM in [1] was 35 mL/min/kg; in data set [2], 5 mL/min/kg. The molecule further came in with a Vd in data set [15] of 1.1 L/kg. The same molecule registered an IC50 in data set [3] of 11 nM. Further, in [4], the efflux ratio at 5 µM came out at 2.3. In data set [5], the Ratio Ki was greater than 150. In [6], the CL free came out at 232 mL/min/kg. The molecule also had a Ki in data set [7] of 2 nM. For the same molecule, the clearance in data set [8] turned out to be 74 mL/min/kg. Moreover, the Kp uu in data set [9] turned out to be 0.3. The half-life in data set [16] is 0.17 h.

`CNc1nc(Nc2cnn(C3(C#N)CC3)c2Cl)ncc1C(F)(F)F`: the CLhep predicted at 1 µM in data set [1] was 30 mL/min/kg; in data set [2], 9 mL/min/kg. In data set [3], 22 nM corresponded to half-maximal inhibition (IC50). The efflux ratio at 5 µM in [4] came to 1.3. In data set [5], the Ratio Ki is greater than 150. In addition, the CL free in data set [6] was found to be 431 mL/min/kg. For the same molecule, in [7], the Ki stood at 2 nM. In data set [8], this molecule registered a clearance of 22 mL/min/kg. In addition, the Kp uu in data set [9] is 0.6.

Consider `CNc1nc(Nc2cn(C(C)(C)C(=O)NC(C)C)nc2C)ncc1C(F)(F)F`, for which, in data set [3], inhibition was half-maximal at 140 nM (IC50). Further, the efflux ratio at 5 µM in [4] was 1.3. The Ratio Ki in data set [5] was greater than 150.

Take `CCNc1nc(Nc2cc(C(C)(C)C#N)nn2C)ncc1C(F)(F)F`: the CLhep predicted at 1 µM in data set [1] was 18 mL/min/kg; in data set [2], 5 mL/min/kg. Moreover, the efflux ratio at 5 µM in data set [4] was determined as 1.5. For the same molecule, the Ratio Ki in data set [5] was greater than 150. The molecule further came in with a CL free in [6] of 201 mL/min/kg. The same molecule gave a clearance in data set [8] of 27 mL/min/kg. In addition, the Kp uu in data set [9] came out at 0.5.

As to `CNc1nc(Nc2cn(C(C)(C)C(=O)NCC(F)(F)F)nc2C)ncc1C(F)(F)F`, in data set [3], the IC50 came to 53 nM. For the same molecule, the efflux ratio at 5 µM in data set [4] is 1.5. Also, the Ratio Ki in [5] is greater than 150.

In the case of `CNc1nc(Nc2cn([C@H]3CCN(C4COC4)C[C@H]3F)nc2C)ncc1C(F)(F)F` (relative stereo), in [2], the CLhep predicted at 1 µM was 1 mL/min/kg. Inhibition in data set [3] was half-maximal at 14 nM (IC50). Besides, the efflux ratio at 5 µM in data set [4] stood at 2.2. Also, the Ratio Ki in data set [5] was greater than 150. The molecule also returned a CL free in data set [6] of 42 mL/min/kg. Also, the affinity in data set [7] corresponds to a Ki of 2 nM. In addition, in [17], the efflux ratio turned out to be 4.2. Moreover, the clearance in data set [8] turned out to be 16 mL/min/kg. Besides, the Kp uu in [9] worked out at 0.08.

As to `CNc1nc(Nc2cnn3c2COC(C)(C)C3)ncc1C(F)(F)F`, the CLhep predicted at 1 µM in data set [2] is 12 mL/min/kg. Further, in data set [3], half-maximal inhibition (IC50) required 20 nM. In data set [4], the efflux ratio at 5 µM worked out at 0.7. Moreover, in [5], the Ratio Ki was greater than 150. For the same molecule, in [7], affinity was put at a Ki of 0.9 nM.

In turn, `CNc1nc(Nc2cnn3c2COCC3)ncc1C(F)(F)F` registered a half-maximal inhibitory concentration (IC50) in data set [3] of 18 nM. In addition, the efflux ratio at 5 µM in data set [4] was 1. The Ratio Ki in data set [5] is greater than 150. This molecule also registered a Ki in [7] of 3 nM.

For the molecule `CCNC(=O)C(C)(C)n1cc(Nc2ncc(C(F)(F)F)c(NC)n2)c(C)n1`, the midpoint of inhibition in [3], the IC50, lay at 99 nM. Also, in [4], the efflux ratio at 5 µM came out at 4. The Ratio Ki in [5] was greater than 150.

`CNC(=O)C(C)(C)n1cc(Nc2ncc(C(F)(F)F)c(NC)n2)c(C)n1` showed an IC50 in data set [3] of 36 nM. Also, in [4], the efflux ratio at 5 µM is 5.5. Also, the Ratio Ki in data set [5] was greater than 150. This molecule showed a CL free in [6] of 27 mL/min/kg. In addition, the clearance in data set [8] is 12 mL/min/kg.

The record behind these values is ChEMBL document CHEMBL3120096 (J Med Chem, 2014).
